Activity calls are given as the source filed them. How the calls were made is not given here.
Tested on: CCRIS mutagenicity, Ames/micronucleus/aberration tests
Experiment: CCRIS mutagenicity studies
[1] = Test System: AMES SALMONELLA TYPHIMURIUM, Strain/Indicator: TA98, Metabolic Activation: NONE, Method: PREINCUBATION
[2] = Test System: AMES SALMONELLA TYPHIMURIUM, Strain/Indicator: TA100, Metabolic Activation: NONE, Method: PREINCUBATION
[3] = Test System: AMES SALMONELLA TYPHIMURIUM, Strain/Indicator: TA1535, Metabolic Activation: NONE, Method: PREINCUBATION

With `Nc1ccccc1Cl` the mutagenic call (Test System: AMES SALMONELLA TYPHIMURIUM, Strain/Indicator: TA97, Metabolic Activation: HAMSTER, LIVER, S-9, AROCLOR 1254 (10%), Method: PREINCUBATION) was “inactive; negative”, the mutagenic call (Test System: AMES SALMONELLA TYPHIMURIUM, Strain/Indicator: TA97, Metabolic Activation: HAMSTER, LIVER, S-9, AROCLOR 1254 (30%), Method: PREINCUBATION) was “inactive; negative” and the mutagenic call (Test System: AMES SALMONELLA TYPHIMURIUM, Strain/Indicator: TA97, Metabolic Activation: NONE, Method: PREINCUBATION) was “inactive; negative”. The mutagenic call (Test System: AMES SALMONELLA TYPHIMURIUM, Strain/Indicator: TA97, Metabolic Activation: RAT, LIVER, S-9, AROCLOR 1254 (10%), Method: PREINCUBATION) was “inactive; negative”, the mutagenic call (Test System: AMES SALMONELLA TYPHIMURIUM, Strain/Indicator: TA97, Metabolic Activation: RAT, LIVER, S-9, AROCLOR 1254 (30%), Method: PREINCUBATION) was “inactive; negative” and the mutagenic call (Test System: AMES SALMONELLA TYPHIMURIUM, Strain/Indicator: TA98, Metabolic Activation: HAMSTER, LIVER, S-9, AROCLOR 1254 (10%), Method: PREINCUBATION) was “inactive; negative”. For the same molecule, the mutagenic call (Test System: AMES SALMONELLA TYPHIMURIUM, Strain/Indicator: TA98, Metabolic Activation: HAMSTER, LIVER, S-9, AROCLOR 1254 (30%), Method: PREINCUBATION) was “inactive; negative”, the mutagenic call [1] was “inactive; negative” and the mutagenic call (Test System: AMES SALMONELLA TYPHIMURIUM, Strain/Indicator: TA98, Metabolic Activation: RAT, LIVER, S-9, AROCLOR 1254 (10%), Method: PREINCUBATION) was “inactive; negative”. The mutagenic call (Test System: AMES SALMONELLA TYPHIMURIUM, Strain/Indicator: TA98, Metabolic Activation: RAT, LIVER, S-9, AROCLOR 1254 (30%), Method: PREINCUBATION) was “inactive; negative”, the mutagenic call (Test System: AMES SALMONELLA TYPHIMURIUM, Strain/Indicator: TA100, Metabolic Activation: HAMSTER, LIVER, S-9, AROCLOR 1254 (10%), Method: PREINCUBATION) was “inactive; negative” and the mutagenic call (Test System: AMES SALMONELLA TYPHIMURIUM, Strain/Indicator: TA100, Metabolic Activation: HAMSTER, LIVER, S-9, AROCLOR 1254 (30%), Method: PREINCUBATION) was “inactive; negative”. For the same molecule, the mutagenic call [2] was “inactive; negative”, the mutagenic call (Test System: AMES SALMONELLA TYPHIMURIUM, Strain/Indicator: TA100, Metabolic Activation: RAT, LIVER, S-9, AROCLOR 1254 (10%), Method: PREINCUBATION) was “inactive; negative” and the mutagenic call (Test System: AMES SALMONELLA TYPHIMURIUM, Strain/Indicator: TA100, Metabolic Activation: RAT, LIVER, S-9, AROCLOR 1254 (30%), Method: PREINCUBATION) was “inactive; negative”. For the same molecule, the mutagenic call (Test System: AMES SALMONELLA TYPHIMURIUM, Strain/Indicator: TA1535, Metabolic Activation: HAMSTER, LIVER, S-9, AROCLOR 1254 (10%), Method: PREINCUBATION) was “inactive; negative”, the mutagenic call (Test System: AMES SALMONELLA TYPHIMURIUM, Strain/Indicator: TA1535, Metabolic Activation: HAMSTER, LIVER, S-9, AROCLOR 1254 (30%), Method: PREINCUBATION) was “inactive; negative” and the mutagenic call [3] was “inactive; negative”. For the same molecule, the mutagenic call (Test System: AMES SALMONELLA TYPHIMURIUM, Strain/Indicator: TA1535, Metabolic Activation: RAT, LIVER, S-9, AROCLOR 1254 (10%), Method: PREINCUBATION) was “inactive; negative”, the mutagenic call (Test System: AMES SALMONELLA TYPHIMURIUM, Strain/Indicator: TA1535, Metabolic Activation: RAT, LIVER, S-9, AROCLOR 1254 (30%), Method: PREINCUBATION) was “inactive; negative” and the mutagenic call (Test System: CHINESE HAMSTER V-79, Strain/Indicator: V-79/8-AZAGUANINE, Metabolic Activation: NONE, Method: SUSPENSION/PLATE) was “active; positive”. The mutagenic call (Test System: CHINESE HAMSTER V-79, Strain/Indicator: V-79/OUABAIN, Metabolic Activation: NONE, Method: SUSPENSION/PLATE) was “inactive; negative”, the mutagenic call (Test System: MOUSE LYMPHOMA, Strain/Indicator: L5178Y (TK+/TK-), Metabolic Activation: NONE, Method: SUSPENSION/PLATE) was “inactive; negative” and the mutagenic call (Test System: MOUSE LYMPHOMA, Strain/Indicator: L5178Y (TK+/TK-), Metabolic Activation: RAT, LIVER, S-9, AROCLOR 1254, Method: SUSPENSION/PLATE) was “active; positive”. The mutagenic call (Test System: UDS RODENT HEPATOCYTES, Strain/Indicator: THY INCORP (NON-S-PHASE), Metabolic Activation: NONE, Method: AUTORADIOGRAPHY) was “inactive; negative”.

With `NCCCN1CCN(CCCN)CC1` the mutagenic call [1] was “inactive; negative”, the mutagenic call (Test System: AMES SALMONELLA TYPHIMURIUM, Strain/Indicator: TA98, Metabolic Activation: RAT LIVER S-9, PHENOBARBITAL AND BETA-NAPHTHOFLAVONE, Method: PREINCUBATION) was “inactive; negative” and the mutagenic call [2] was “inactive; negative”. The mutagenic call (Test System: AMES SALMONELLA TYPHIMURIUM, Strain/Indicator: TA100, Metabolic Activation: RAT LIVER S-9, PHENOBARBITAL AND BETA-NAPHTHOFLAVONE, Method: PREINCUBATION) was “inactive; negative”, the mutagenic call (Test System: AMES SALMONELLA TYPHIMURIUM, Strain/Indicator: TA102, Metabolic Activation: NONE, Method: PREINCUBATION) was “inactive; negative” and the mutagenic call (Test System: AMES SALMONELLA TYPHIMURIUM, Strain/Indicator: TA102, Metabolic Activation: RAT LIVER S-9, PHENOBARBITAL AND BETA-NAPHTHOFLAVONE, Method: PREINCUBATION) was “inactive; negative”. The mutagenic call (Test System: AMES SALMONELLA TYPHIMURIUM, Strain/Indicator: TA104, Metabolic Activation: NONE, Method: PREINCUBATION) was “inactive; negative”, the mutagenic call (Test System: AMES SALMONELLA TYPHIMURIUM, Strain/Indicator: TA104, Metabolic Activation: RAT LIVER S-9, PHENOBARBITAL AND BETA-NAPHTHOFLAVONE, Method: PREINCUBATION) was “inactive; negative” and the mutagenic call [3] was “inactive; negative”. For the same molecule, the mutagenic call (Test System: AMES SALMONELLA TYPHIMURIUM, Strain/Indicator: TA1535, Metabolic Activation: RAT LIVER S-9, PHENOBARBITAL AND BETA-NAPHTHOFLAVONE, Method: PREINCUBATION) was “inactive; negative”, the mutagenic call (Test System: AMES SALMONELLA TYPHIMURIUM, Strain/Indicator: TA1537, Metabolic Activation: NONE, Method: PREINCUBATION) was “inactive; negative” and the mutagenic call (Test System: AMES SALMONELLA TYPHIMURIUM, Strain/Indicator: TA1537, Metabolic Activation: RAT LIVER S-9, PHENOBARBITAL AND BETA-NAPHTHOFLAVONE, Method: PREINCUBATION) was “inactive; negative”. For the same molecule, the mutagenic call (Test System: E.COLI, Strain/Indicator: WP2UVRA/PKM101, Metabolic Activation: NONE, Method: PREINCUBATION) was “inactive; negative”, the mutagenic call (Test System: E.COLI, Strain/Indicator: WP2UVRA/PKM101, Metabolic Activation: RAT LIVER S-9, PHENOBARBITAL AND BETA-NAPHTHOFLAVONE, Method: PREINCUBATION) was “inactive; negative” and the mutagenic call (Test System: E.COLI, Strain/Indicator: WP2UVRA, Metabolic Activation: NONE, Method: PREINCUBATION) was “inactive; negative”. For the same molecule, the mutagenic call (Test System: E.COLI, Strain/Indicator: WP2UVRA, Metabolic Activation: RAT LIVER S-9, PHENOBARBITAL AND BETA-NAPHTHOFLAVONE, Method: PREINCUBATION) was “inactive; negative”.

Source: PubChem BioAssay AID1259407 (Chemical Carcinogenesis Research Information System (CCRIS), 2018)
